# Molecular target: T1, hFXR (Homo sapiens, UniProt Q96RI1)
# T1 construct: expressed in transfected cells; host or cells: CV-1 cells
# T1 sequence (Q96RI1 1-486): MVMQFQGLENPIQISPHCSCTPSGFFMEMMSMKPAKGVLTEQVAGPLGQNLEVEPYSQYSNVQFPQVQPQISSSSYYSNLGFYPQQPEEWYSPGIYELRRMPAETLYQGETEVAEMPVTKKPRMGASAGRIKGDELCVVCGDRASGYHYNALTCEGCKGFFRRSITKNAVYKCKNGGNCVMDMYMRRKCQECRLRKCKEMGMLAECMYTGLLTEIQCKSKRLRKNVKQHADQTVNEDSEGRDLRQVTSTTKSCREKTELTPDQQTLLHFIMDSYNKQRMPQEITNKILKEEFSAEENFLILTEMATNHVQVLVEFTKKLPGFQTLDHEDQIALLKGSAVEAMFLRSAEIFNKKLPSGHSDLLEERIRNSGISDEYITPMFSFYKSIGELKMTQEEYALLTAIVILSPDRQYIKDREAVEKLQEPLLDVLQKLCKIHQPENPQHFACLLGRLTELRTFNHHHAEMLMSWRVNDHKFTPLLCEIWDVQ
# T1 sequence (P19793 1-462 partner): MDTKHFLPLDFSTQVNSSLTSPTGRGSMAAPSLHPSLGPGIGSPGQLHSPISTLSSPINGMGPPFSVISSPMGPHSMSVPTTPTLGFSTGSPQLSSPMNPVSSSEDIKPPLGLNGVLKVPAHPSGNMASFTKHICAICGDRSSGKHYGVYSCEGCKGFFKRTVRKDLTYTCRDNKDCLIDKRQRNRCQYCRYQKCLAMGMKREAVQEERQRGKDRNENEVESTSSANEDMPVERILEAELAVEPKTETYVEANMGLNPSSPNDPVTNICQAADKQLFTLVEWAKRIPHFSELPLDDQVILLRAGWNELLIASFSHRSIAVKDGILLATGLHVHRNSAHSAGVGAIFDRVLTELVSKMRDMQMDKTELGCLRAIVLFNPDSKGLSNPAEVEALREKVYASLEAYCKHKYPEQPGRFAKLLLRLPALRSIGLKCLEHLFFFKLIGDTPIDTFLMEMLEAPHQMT
# Experiment: In Vitro FXR Assay (TK): hFXR/hRXR TK-ECRE-luc reporter in transfected CV-1 cells
# Format: cell-based
# Conditions: 18 hrs incubation, luminescence, compounds with maximum efficacy <25% of the Fexarmine control classified as '+'
# Protocol: Example B-1: In Vitro FXR Assay (TK)
# CV-1 cells were seeded at a density of 2,000,000 cells in a T175 flask with DMEM+10% charcoal double-stripped FBS and incubated at 37° C. in 5% CO2 for 18 h (O/N).
# After 18 h of incubation, the medium in the T175 flask was changed with fresh DMEM+10% charcoal super-stripped serum. In a polypropylene tube, 2500 μL OptiMEM (Life Technologies, Cat #31985-062) was combined with expression plasmids for hFXR, hRXR, TK-ECRE-luc and pCMX-YFP. The tube was then briefly vortexed and incubated at room temperature for 5 minutes. Transfection reagent (X-tremeGENE HP from Roche, Cat #06 366 236 001) was added to the OptiMEM/plasmid mixture vortexed and incubated at room temperature for 20 minutes. Following incubation, the transfection reagent/DNA mixture complex was added to cells in the T175 flask and the cells were incubated at 37° C. in 5% CO2 for 18 h (O/N).
# Compounds were serially diluted in DMSO and added to transfected CV-1 cells. The cells were then incubated for 18 hrs. The next day cells were lysed and examined for luminescence.
row,SMILES,EC50
1,"COc1ccc([C@H]2CC[C@H](CN(c3cccc(-c4cnc(C(F)(F)F)s4)c3)C(=O)[C@H]3CC[C@H](O)CC3)CC2)cc1C [Compound 7.23, trans-4-Hydroxy-N-((trans-4-(4-methoxy-3-methylphenyl)cyclohexyl)methyl)-N-(3-(2-(trifluoromethyl)thiazol-5-yl)phenyl)cyclohexanecarboxamide]",≤ 250 nM
2,"COc1ncc(-c2cccc(N(CC3CCC(c4ccc(OC)c(C)c4)CC3C)C(=O)[C@H]3CC[C@H](O)CC3)c2)s1 (stereo partly drawn) [Compound 12, trans-4-Hydroxy-N-((4-(4-methoxy-3-methylphenyl)-2-methylcyclohexyl)methyl)-N-(3-(2-methoxythiazol-5-yl)phenyl)cyclohexanecarboxamide]",≤ 250 nM
3,"COc1ccc([C@H]2CC[C@H](CN(c3cccc(-c4cnc(C5CC5)s4)c3)C(=O)[C@H]3CC[C@H](O)CC3)CC2)cc1C [Compound 7, trans-N-(3-(2-Cyclopropylthiazol-5-yl)phenyl)-4-hydroxy-N-((trans-4-(4-methoxy-3-methylphenyl)cyclohexyl)methyl) cyclohexanecarboxamide]",≤ 250 nM
4,"COc1ncc(-c2cccc(N(C[C@H]3CC[C@H](c4ccc(OC)c(C)c4)CC3)C(=O)[C@H]3CC[C@H](O)CC3)c2)s1 [Compound 1, trans-4-Hydroxy-N-((trans-4-(4-methoxy-3-methylphenyl)cyclohexyl)methyl)-N-(3-(2-methoxythiazol-5-yl)phenyl)cyclohexanecarboxamide]",≤ 250 nM
5,"COc1ccc(C23CCC(CN(c4cccc(-c5cnc(C6CC6)s5)c4)C(=O)[C@H]4CC[C@H](O)CC4)(CC2)CC3)cc1C [Compound 10, trans-N-(3-(2-Cyclopropylthiazol-5-yl)phenyl)-4-hydroxy-N-((4-(4-methoxy-3-methylphenyl)bicyclo[2.2.2]octan-1-yl)methyl)cyclohexanecarboxamide]",≤ 250 nM
6,"COc1ccc([C@H]2CC[C@H](CN(c3cccc(-c4cnc(N(C)C)s4)c3)C(=O)[C@H]3CC[C@H](O)CC3)CC2)cc1C [Compound 7.13, trans-N-(3-(2-(Dimethylamino)thiazol-5-yl)phenyl)-4-hydroxy-N-((trans-4-(4-methoxy-3-methylphenyl)cyclohexyl)methyl) cyclohexanecarboxamide]",≤ 250 nM
7,"COc1ccc([C@H]2CC[C@H](CN(c3cccc(CNc4nccs4)c3)C(=O)[C@H]3CC[C@H](O)CC3)CC2)cc1C [Compound 14, trans-4-Hydroxy-N-((trans-4-(4-methoxy-3-methylphenyl)cyclohexyl)methyl)-N-(3-((thiazol-2-ylamino)methyl)phenyl)cyclohexanecarboxamide]",≥ 1000 nM
8,"COc1ccc([C@H]2CC[C@H](CN(c3cccc(-c4cnc(C(=O)O)s4)c3)C(=O)[C@H]3CC[C@H](O)CC3)CC2)cc1C [Compound 7.28, 5-(3-(trans-4-Hydroxy-N-((trans-4-(4-methoxy-3-methylphenyl)cyclohexyl)methyl)cyclohexanecarboxamido)phenyl)thiazole-2-carboxylic acid]",≥ 1000 nM
9,"COc1ccc([C@H]2CC[C@H](CN(c3cccc(COc4nccs4)c3)C(=O)[C@H]3CC[C@H](O)CC3)CC2)cc1C [Compound 17, trans-4-Hydroxy-N-((trans-4-(4-methoxy-3-methylphenyl)cyclohexyl)methyl)-N-(3-((thiazol-2-yloxy)methyl)phenyl)cyclohexanecarboxamide]",≤ 250 nM
10,"COc1ncc(-c2ccnc(N(C[C@H]3CC[C@H](c4ccc(OC)c(C)c4)CC3)C(=O)[C@H]3CC[C@H](O)CC3)c2)s1 [Compound 6.01, trans-4-Hydroxy-N-((trans-4-(4-methoxy-3-methylphenyl)cyclohexyl)methyl)-N-(4-(2-methoxythiazol-5-yl)pyridin-2-yl)cyclohexanecarboxamide]",≤ 250 nM
11,"COc1ccc([C@H]2CC[C@H](CN(c3cccc(-c4cnc(S(C)(=O)=O)s4)c3)C(=O)[C@H]3CC[C@H](O)CC3)CC2)cc1C [Compound 7.12, trans-4-Hydroxy-N-((trans-4-(4-methoxy-3-methtylphenyl)cyclohexyl)methyl)-N-(3-(2-(methylsulfonyl)thiazol-5-yl)phenyl)cyclohexanecarboxamide]",250 to 1000 nM

# Further lines, results first:
row,EC50,SMILES
1,≤ 250 nM,"COc1ncc(-c2cccc(N(C[C@H]3CC[C@H](c4ccc5c(c4)c(F)nn5C)CC3)C(=O)[C@H]3CC[C@H](O)CC3)c2)s1 [Compound 9.10, trans-N-((trans-4-(3-Fluoro-1-methyl-1H-indazol-5-yl)cyclohexyl)methyl)-4-hydroxy-N-(3-(2-methoxythiazol-5-yl)phenyl)cyclohexanecarboxamide]"
2,≤ 250 nM,"COc1ncc(-c2cccc(N(C[C@H]3CC[C@H](c4ccc(OC)c(C)c4)CC3)C(=O)C3CCOCC3)c2)s1 [Compound 9.30, N-((trans-4-(4-Methoxy-3-methylphenyl)cyclohexyl)methyl)-N-(3-(2-methoxythiazol-5-yl)phenyl)tetrahydro-2H-pyran-4-carboxamide]"
3,≤ 250 nM,"COc1ncc(-c2cccc(N(C[C@H]3CC[C@H](c4ccc(OC)c(C)c4)CC3)C(=O)C3CCC(F)(F)CC3)c2)s1 [Compound 9.32, 4,4-Difluoro-N-((trans-4-(4-methoxy-3-methylphenyl)cyclohexyl)methyl)-N-(3-(2-methoxythiazol-5-yl)phenyl)cyclohexanecarboxamide]"
4,≤ 250 nM,"COc1ccc([C@H]2CC[C@H](CN(c3cccc(-c4cnc(C5CC5)s4)c3)C(=O)[C@H]3CC[C@H](O)CC3)CC2)cc1Cl [Compound 9.03, trans-N-((trans-4-(3-Chloro-4-methoxyphenyl)cyclohexyl)methyl)-N-(3-(2-cyclopropylthiazol-5-yl)phenyl)-4-hydroxycyclohexanecarboxamide]"
5,≤ 250 nM,"COc1ncc(-c2cccc(N(C[C@H]3CC[C@H](c4ccc5c(c4)OCO5)CC3)C(=O)[C@H]3CC[C@H](O)CC3)c2)s1 [Compound 9.14, trans-N-((trans-4-(Benzo[d][1,3]dioxol-5-yl)cyclohexyl)methyl)-4-hydroxy-N-(3-(2-methoxythiazol-5-yl)phenyl)cyclohexanecarboxamide]"
6,≤ 250 nM,"COc1ccc([C@H]2CC[C@H](CN(c3cc(-c4cnc(C5CC5)s4)ccn3)C(=O)[C@H]3CC[C@H](O)CC3)CC2)cc1C#N [Compound 9.22, trans-N-((trans-4-(3-Cyano-4-methoxyphenyl)cyclohexyl)methyl)-N-(4-(2-cyclopropylthiazol-5-yl)pyridin-2-yl)-4-hydroxycyclohexanecarboxamide]"
7,250 to 1000 nM,"Cn1ccc2cc([C@H]3CC[C@H](CN(c4cccc(-c5cnc(C6CC6)s5)c4)C(=O)[C@H]4CC[C@H](O)CC4)CC3)ncc21 [Compound 9.17, trans-N-(3-(2-Cyclopropylthiazol-5-yl)phenyl)-4-hydroyx-N-((trans-4-(1-methyl-1H-pyrrolo[2,3-c]pyridin-5-yl)cyclohexyl)methyl)cyclohexanecarboxamide]"
8,≤ 250 nM,"C#Cc1cc([C@H]2CC[C@H](CN(c3cccc(-c4cnc(OC)s4)c3)C(=O)[C@H]3CC[C@H](O)CC3)CC2)ccc1OC [Compound 9.05, trans-N-((trans-4-(3-Ethynyl-4-methoxyphenyl)cyclohexyl)methyl)-4-hydroxy-N-(3-(2-methoxythiazol-5-yl)phenyl)cyclohexanecarboxamide]"
9,≤ 250 nM,"COc1ccc([C@H]2CC[C@H](CN(c3cccc(C#Cc4cncs4)c3)C(=O)[C@H]3CC[C@H](O)CC3)CC2)cc1C [Compound 8.01, trans-4-Hydroxy-N-((trans-4-(4-methoxy-3-methylphenyl)cyclohexyl)methyl)-N-(3-(thiazol-5-ylethynyl)phenyl)cyclohexanecarboxamide]"
10,≤ 250 nM,"COc1ncc(-c2cccc(N(C[C@H]3CC[C@H](c4ccc(N(C)C)nc4)CC3)C(=O)[C@H]3CC[C@H](O)CC3)c2)s1 [Compound 9.08, trans-N-((trans-4-(6-(Dimethylamino)pyridin-3-yl)cyclohexyl)mtehyl)-4-hydroxy-N-(3-(2-methoxythiazol-5-yl)phenyl)cyclohexanecarboxamide]"
